According to patent publication US20210330736A1 (UNIVERSITEIT VAN AMSTERDAM, priority 2018, published 2021):
Bridges are numbered along the chain shown (N, C = ends). [ ]: non-standard residue; d: D form. Abu = CC[C@H](N)C(=O)O

Experiments:
[1] = system: Th Ser40 phosphorylation in mouse striatum slices; test: Th Ser40 phosphorylation in mouse striatal slices ex vivo (WES automated western); assay type: cell-based; conditions: for effects in striatal slices (significance, in words): peptides 10 μM, mouse striatal slices; for effects in striatal slices (significance, in words) / Fold change (average), P-S40 TH/TTH: 1 h; for Fold change (average), P-S40 TH/TTH: WES
Source text: FIG. 13. Bay 60-7550 and Guanylin synergize to induce Ser40 phosphorylation Analysis of striatal slices treated with indicated compounds. WES data showing the phosphorylation of Th on Serine 40 is shown as well as total Th levels (a). From left to right are sequential striatal slices from rostral to caudal. Every slice is split into left and right hemisphere and either treated with compounds or vehicle. Left a positive and negative control is shown (Neuro2a cells transfected with Th or empty vector). The amount of Th Ser40 is corrected for the amount of total Th and shown in the bar graph (b). Each individual slice is indicated by a different symbol. Signficance is determined using a 2-tailed paired t-test. 2-tailed paired t-test: p=0.006.
Adult mice with an average of 5 weeks were sacrificed and the brain was quickly removed and sliced into coronal sections of 250 μm using a vibratome. Sections containing striatum were micro-dissected to remove non-striatal structures. Hemispheres were separated and one hemisphere was treated with compounds whereas the counter-hemisphere was treated with vehicle. Treatment of slices occurred in carbonized artificial cerebrospinal fluid (aCSF). After treatments, slices were lyzed in SDS containing sample buffer, sonicated, and heated at 95° C. Samples were analyzed on a WES automated western system (Protein Simple) according to manufacturer's instructions.
To investigate the effect of PDE2 inhibition in the mouse brain, an ex-vivo approach using brain slices was utilized. Coronal slices of mouse striatum were prepared and treated with BAY-60 7550 diluted in aCSF and subsequently analyzed by a WES automated western system. […] PDE2 is thus expressed in dopaminergic neurons and PDE2 protein and Th protein are present in the synaptic terminals of the neurons which project from the midbrain dopamine system to the striatum. To investigate the effects of GUCY2C ligands on Th activation, coronal slices of the mouse striatum were prepared, treated with guanylin and analyzed for Th Ser40 phosphorylation as was done for BAY-60-7550. […] The machinery for producing dopamine is thus present in the synaptic terminals where dopamine is released. […] Since both BAY 60-7550 and guanylin increased Th phosphorylation at 10μM, but not at 1 μM, we examined the effect of combining BAY 60-7750 and guanylin at 1μM.

GUCY2C = GUCY2C (Homo sapiens, UniProt P25092); test: GUCY2C ligand analysis in HEK-293 cells transfected with GUCY2C and Th (WES); assay type: cell-based; set-up: expressed in transfected cells; host or cells: HEK-293 cells transfected with GUCY2C and Th; conditions: 10 μM, Th Ser40 corrected for total Th, n=3
Chain of GUCY2C (P25092 24-1073): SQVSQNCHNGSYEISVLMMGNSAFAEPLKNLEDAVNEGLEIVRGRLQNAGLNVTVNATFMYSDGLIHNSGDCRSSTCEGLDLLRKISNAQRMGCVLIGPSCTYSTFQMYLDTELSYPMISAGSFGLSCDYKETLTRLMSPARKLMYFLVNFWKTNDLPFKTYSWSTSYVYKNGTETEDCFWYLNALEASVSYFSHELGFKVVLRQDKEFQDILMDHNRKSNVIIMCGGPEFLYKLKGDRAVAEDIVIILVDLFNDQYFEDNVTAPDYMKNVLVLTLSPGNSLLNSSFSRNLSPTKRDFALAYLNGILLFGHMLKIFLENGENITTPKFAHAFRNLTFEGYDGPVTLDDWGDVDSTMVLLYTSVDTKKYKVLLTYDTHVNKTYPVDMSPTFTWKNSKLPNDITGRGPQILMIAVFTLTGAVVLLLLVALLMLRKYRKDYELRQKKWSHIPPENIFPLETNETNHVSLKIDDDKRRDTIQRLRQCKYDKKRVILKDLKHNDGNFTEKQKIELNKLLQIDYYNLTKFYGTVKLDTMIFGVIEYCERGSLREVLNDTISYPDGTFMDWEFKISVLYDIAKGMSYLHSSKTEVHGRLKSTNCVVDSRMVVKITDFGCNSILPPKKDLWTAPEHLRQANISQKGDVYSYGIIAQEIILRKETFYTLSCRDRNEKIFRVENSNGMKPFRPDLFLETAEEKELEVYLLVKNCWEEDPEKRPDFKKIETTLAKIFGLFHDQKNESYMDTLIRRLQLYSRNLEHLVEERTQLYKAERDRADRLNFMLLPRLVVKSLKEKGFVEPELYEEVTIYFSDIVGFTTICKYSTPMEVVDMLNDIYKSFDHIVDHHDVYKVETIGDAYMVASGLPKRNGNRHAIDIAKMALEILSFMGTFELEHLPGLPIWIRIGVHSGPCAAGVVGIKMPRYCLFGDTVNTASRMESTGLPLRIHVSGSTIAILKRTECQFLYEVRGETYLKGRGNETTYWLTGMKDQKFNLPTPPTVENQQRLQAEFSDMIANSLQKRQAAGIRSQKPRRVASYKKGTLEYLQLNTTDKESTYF
Protocol: Potential GUCY2C ligands were tested in HEK-293 cells transfected with GUCY2C and Th and subsequently treated and analyzed by automated western (WES). Th Ser40 was corrected for total Th. Controls were set to 1. Significance is determined by two-tailed t-test on n=3. * p<0.05, **p<0.01, ***p<0.005, “”p<0.001. A) Guanylin control 10 μM. B) Peptides 1 to 5 in an amount of 10 μM. C) Peptides 6 to 11 in an amount of 10 μM.
We designed novel peptides with different activities with respect to endogenous GUCY2C ligands (Table 3). The peptides were analyzed in Th and GUCY2C transfected HEK-293 cells and subsequently tested ex-vivo in mice striatal slices. […] We synthezised uroguanylin and heat stable toxin as controls for the synthezised peptides and they thus are from a different source than the commercially available uroguanylin and heat stable toxin. […] Possibly the effects of the peptides can differ depending on the area in the striatum which is stimulated.

Row | Substance | effects in striatal slices (significance, in words) [1] | Ser40 phosphorylation in HEK-293 cells (significance, in words) (GUCY2C) | Fold change (average), P-S40 TH/TTH ([1]; 10 μM, striatal slices) | rank of fold change in striatal slices ([1]; 10 μM, striatal slices)
1 | H-NDDCELCVNVACTGCL-OH (disulfide 4-12, 7-15; SMILES CC(C)C[C@H](NC(=O)[C@@H]1CSSC[C@@H]2NC(=O)[C@H](CC(C)C)NC(=O)[C@H](CCC(=O)O)NC(=O)[C@@H](NC(=O)[C@H](CC(=O)O)NC(=O)[C@H](CC(=O)O)NC(=O)[C@@H](N)CC(N)=O)CSSC[C@H](NC(=O)[C@H](C)NC(=O)[C@H](C(C)C)NC(=O)[C@H](CC(N)=O)NC(=O)[C@H](C(C)C)NC2=O)C(=O)N[C@@H]([C@@H](C)O)C(=O)NCC(=O)N1)C(=O)O) [Peptide 1] | did not show any significant effects | did not show any significant effects | – | –
2 | H-NDDCELCVNVVCTGCL-OH (disulfide 4-12, 7-15; ends not checked) [Peptide 5] | – | – | 1.22 | –
3 | H-NTFYCCELCCNPACAGCY-OH (disulfide 5-10, 6-14, 9-17; ends not checked) [Peptide 9] | – | significant effects | 1.37 | –
4 | H-QEECEL[Abu]INMACTGY-OH (cysteine pairing not given here) [Peptide 6] | – | significant effects | 0.88 | –
5 | H-NTFYCCELCCNPaCAGCY-OH [Peptide 11] | – | significant effects | 1.20 | –
6 | H-NDCCELCCNVACTGCL-OH [Peptide 4] | – | significant effects | 1.00 | –
7 | H-NDDCELCVNVACTGCLL-OH (disulfide 4-12, 7-15; ends not checked) [Peptide 2] | not significant | significant effects | 2.23 | largest fold change
8 | H-QEECELCINMACTGCL-OH (disulfide 4-12, 7-15; ends not checked) [Peptide 8] | – | significant effects | 0.89 | –
9 | H-NTFYCCELCCAPACTGCY-OH [Peptide 10] | – | significant effects | 1.44 | –
